Each compound was assayed against Aminopeptidase N (Oryctolagus cuniculus) (UniProt P15541) (assay: Inhibitory activity against rabbit kidney aminopeptidase using 10 nM of [3H]Leu-enkephalin as substrate).
Aminopeptidase N (Oryctolagus cuniculus), sequence (P15541 whole entry, looked up): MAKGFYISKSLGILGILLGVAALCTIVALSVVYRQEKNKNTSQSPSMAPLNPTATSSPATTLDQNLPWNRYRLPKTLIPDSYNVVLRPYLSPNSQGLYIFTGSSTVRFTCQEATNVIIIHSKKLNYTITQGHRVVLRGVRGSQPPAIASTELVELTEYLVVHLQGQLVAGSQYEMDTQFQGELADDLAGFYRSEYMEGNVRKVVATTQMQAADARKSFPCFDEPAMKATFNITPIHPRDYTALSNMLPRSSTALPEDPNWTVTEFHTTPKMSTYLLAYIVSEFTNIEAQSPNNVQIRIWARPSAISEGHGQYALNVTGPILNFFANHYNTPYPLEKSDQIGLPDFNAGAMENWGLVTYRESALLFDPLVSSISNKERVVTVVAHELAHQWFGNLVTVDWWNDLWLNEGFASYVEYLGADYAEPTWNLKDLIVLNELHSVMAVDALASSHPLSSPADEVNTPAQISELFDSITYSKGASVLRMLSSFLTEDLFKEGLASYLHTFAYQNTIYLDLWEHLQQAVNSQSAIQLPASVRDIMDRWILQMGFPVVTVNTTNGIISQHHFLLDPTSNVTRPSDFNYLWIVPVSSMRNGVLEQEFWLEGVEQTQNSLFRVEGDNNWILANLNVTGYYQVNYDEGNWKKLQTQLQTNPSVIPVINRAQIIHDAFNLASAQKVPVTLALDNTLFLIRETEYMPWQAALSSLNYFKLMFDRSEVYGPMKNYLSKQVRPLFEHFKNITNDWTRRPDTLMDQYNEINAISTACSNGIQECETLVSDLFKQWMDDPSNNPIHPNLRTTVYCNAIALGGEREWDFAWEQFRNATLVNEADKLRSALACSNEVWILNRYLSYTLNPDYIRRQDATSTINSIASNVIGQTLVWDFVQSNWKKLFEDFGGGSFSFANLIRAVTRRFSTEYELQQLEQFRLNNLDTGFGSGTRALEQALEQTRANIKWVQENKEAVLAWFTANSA

IC50	SMILES
0.85 µM	O=CN(O)CC(Cc1ccccc1)C(=O)NCC(=O)O (centres undefined) [[2-Benzyl-3-(formyl-hydroxy-amino)-propionylamino]-acetic acid]
0.71 µM	C[C@H](NC(=O)[C@@H](CC(=O)NO)Cc1ccccc1)C(=O)O (racemic) [(RS)-2-(2-Benzyl-3-hydroxycarbamoyl-propionylamino)-propionic acid]
25 µM	O=CN(O)C(Cc1ccccc1)C(=O)NCC(=O)O (centres undefined) [[2-(Formyl-hydroxy-amino)-3-phenyl-propionylamino]-acetic acid]
100 µM	O=C(O)CNC(=O)C(Cc1ccccc1)C(=O)NO (racemic)
